Experimental findings from PubChem BioAssay (NCI) are described below.

Among the test systems are MDA-MB-435; HOP-92 NSCLC; NCI-H23 lung; M14 melanoma; SNB-19 CNS; HS 578T breast; SW-620 colon; CCRF-CEM leukemia; OVCAR-5 ovarian; MALME-3M melanoma; HOP-62 NSCLC; ACHN renal; RPMI-8226 leukemia; RXF 393 renal; U251 CNS; MDA-MB-231 breast.
Test in all cases: inhibition of tumour cell growth, NCI panel, 48 h

The structures appear in SMILES notation.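 Cultured in 96-well plates, cells were exposed to test compound for 48 hours across five concentrations. TGI is the concentration that stops growth completely.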

Turning to `NC(=O)c1cc(-c2ccc(-n3ccnc3)cc2)n[nH]c1=O`, the TGI with MDA-MB-435, with HOP-92 NSCLC, in the assay with NCI-H23 lung, in the assay on M14 melanoma, in the assay on SNB-19 CNS and with HS 578T breast was above 100 µM in each case. Further, the TGI in the assay with SW-620 colon, in the assay on CCRF-CEM leukemia, in the assay on OVCAR-5 ovarian, in the assay with MALME-3M melanoma, in the assay on HOP-62 NSCLC and in the assay with ACHN renal was above 100 µM each time. The TGI in the assay on RPMI-8226 leukemia, in the assay with RXF 393 renal and with U251 CNS was above 100 µM in each case.
Regarding `C#CCSc1nc(N)c2ncn(C3OC(CO)C(O)C3O)c2n1` (configuration not stated), the TGI in the assay on NCI-H23 lung, in the assay on SNB-19 CNS, in the assay with SW-620 colon, in the assay on CCRF-CEM leukemia, in the assay with MALME-3M melanoma and with HOP-62 NSCLC was above 100 µM in each case. Moreover, the TGI with ACHN renal, in the assay on RPMI-8226 leukemia, with RXF 393 renal and in the assay on U251 CNS was above 100 µM each time.
For the molecule `C=C[C@@]1(C)CCC2(O)C(CCC3C2(C)CCC[C@@]3(C)COC(=O)CC(=O)OC)C1` (some centres not stated), the TGI was 37.4 µM with NCI-H23 lung; 32.7 µM in the assay with M14 melanoma; above 100 µM in the assay with SNB-19 CNS; 31.7 µM in the assay on SW-620 colon; above 100 µM in the assay on CCRF-CEM leukemia; 57.8 µM in the assay on OVCAR-5 ovarian. For the same molecule, the TGI with MALME-3M melanoma was 32.3 µM; in the assay with HOP-62 NSCLC, 34 µM; with ACHN renal, above 100 µM; in the assay with RPMI-8226 leukemia it was 47 µM; in the assay on RXF 393 renal it was 61.5 µM; in the assay with U251 CNS, 32.2 µM.
As to `CCN(CC)CCNc1ccc2ncn3c4c(OC)ccc(OC)c4c(=O)c1c23`, the TGI with HOP-92 NSCLC was determined as 31.2 µM; with NCI-H23 lung, 75.5 µM; with M14 melanoma, 34.4 µM; with SNB-19 CNS it was 58.7 µM; in the assay with SW-620 colon, 18.2 µM; in the assay with CCRF-CEM leukemia, 27.1 µM. The TGI is 41.8 µM in the assay with MALME-3M melanoma; above 100 µM in the assay on HOP-62 NSCLC; above 100 µM in the assay on ACHN renal; 29.1 µM with MDA-MB-231 breast; 10.3 µM in the assay with RXF 393 renal; 35.6 µM in the assay on U251 CNS.
As to `COc1ccc(-c2cnoc2-c2ccc(OC)c(OC)c2)cc1OC`, the TGI in the assay with HOP-92 NSCLC is 21.3 µM; in the assay with NCI-H23 lung it was 3.97 µM; in the assay with M14 melanoma, 5.39 µM; in the assay on SNB-19 CNS it was 98.6 µM; with SW-620 colon, above 37.5 µM; in the assay on CCRF-CEM leukemia, 13.4 µM. Moreover, the TGI in the assay with OVCAR-5 ovarian is 36 µM; in the assay with HOP-62 NSCLC it was 20.5 µM; in the assay with ACHN renal it was above 74.2 µM; in the assay on RPMI-8226 leukemia, 18.5 µM; in the assay with U251 CNS it was 11.4 µM.
For the molecule `CC12CCC([C@H](N3CCOCC3)/C1=N\OCCN1CCCC1)C2(C)C` (some centres not stated), the TGI with HOP-92 NSCLC, with NCI-H23 lung, in the assay on M14 melanoma, in the assay on SNB-19 CNS, with SW-620 colon and in the assay on CCRF-CEM leukemia was above 100 µM throughout. The TGI in the assay with OVCAR-5 ovarian, with MALME-3M melanoma, in the assay with HOP-62 NSCLC, with ACHN renal, in the assay on RPMI-8226 leukemia and with RXF 393 renal was above 100 µM each time. In the assay on U251 CNS, the TGI was above 100 µM.
As to `O=C(C/C(=N\NC(=O)C[n+]1ccccc1)C(=O)Nc1nc2ccc([N+](=O)[O-])cc2s1)CC(c1ccccc1)c1c(O)c2ccccc2oc1=O` (configuration not stated), the TGI in the assay with HOP-92 NSCLC, with NCI-H23 lung, in the assay with M14 melanoma, in the assay with SNB-19 CNS, in the assay on SW-620 colon and with CCRF-CEM leukemia was above 100 µM throughout. Moreover, the TGI with OVCAR-5 ovarian, with MALME-3M melanoma, in the assay on HOP-62 NSCLC, with ACHN renal, in the assay on RPMI-8226 leukemia and in the assay on RXF 393 renal was above 100 µM in each case.
For the molecule `C=CCN1C(=O)CC1N(CC=C)S(=O)(=O)c1ccc(C)cc1` (configuration not stated), the TGI in the assay on MDA-MB-435, with HOP-92 NSCLC, in the assay on NCI-H23 lung, with M14 melanoma, in the assay on SNB-19 CNS and in the assay with HS 578T breast was above 100 µM each time. Also, the TGI in the assay on SW-620 colon, in the assay on CCRF-CEM leukemia, in the assay on OVCAR-5 ovarian, with MALME-3M melanoma, in the assay with ACHN renal and in the assay on RPMI-8226 leukemia was above 100 µM in each case. Besides, the TGI in the assay with RXF 393 renal and with U251 CNS was above 100 µM throughout.
In the case of `Oc1[nH]c2ccccc2c1N=NC(=S)N1CCCCC1`, the TGI in the assay on MDA-MB-435 came to 4.58 µM; in the assay on HOP-92 NSCLC it was 6.58 µM; in the assay with NCI-H23 lung, 9.14 µM; in the assay with M14 melanoma, 2.23 µM; in the assay with SNB-19 CNS, 12.5 µM; in the assay with SW-620 colon it was 8.63 µM. Moreover, the TGI in the assay with OVCAR-5 ovarian turned out to be 21.1 µM; in the assay with MALME-3M melanoma, 2.2 µM; in the assay on HOP-62 NSCLC, 3.83 µM; with ACHN renal, 5.97 µM; in the assay on MDA-MB-231 breast, 2.79 µM; in the assay with RPMI-8226 leukemia, 2.43 µM. For the same molecule, the TGI came to 2.65 µM in the assay on RXF 393 renal and 7.83 µM in the assay on U251 CNS.
Consider `C=CCC1C(=O)C(C(=O)OC)N2CCc3c([nH]c4ccccc34)C12` (configuration not stated), for which the TGI in the assay on HOP-92 NSCLC, in the assay with NCI-H23 lung, in the assay with M14 melanoma, in the assay on SNB-19 CNS, in the assay with SW-620 colon and in the assay on CCRF-CEM leukemia was above 100 µM throughout. Also, the TGI in the assay on OVCAR-5 ovarian, in the assay with MALME-3M melanoma, in the assay on HOP-62 NSCLC, in the assay on RPMI-8226 leukemia, in the assay on RXF 393 renal and in the assay with U251 CNS was above 100 µM in each case.
As for `CC(=O)OCCOCNC(=S)N/N=C/c1ccc2ccccc2n1`, the TGI was above 100 µM in the assay on NCI-H23 lung; above 100 µM in the assay on M14 melanoma; above 100 µM with SNB-19 CNS; above 100 µM in the assay on SW-620 colon; above 100 µM with CCRF-CEM leukemia; 65.5 µM with OVCAR-5 ovarian. Moreover, the TGI with MALME-3M melanoma, in the assay with HOP-62 NSCLC, with ACHN renal, in the assay with RPMI-8226 leukemia, in the assay with RXF 393 renal and in the assay with U251 CNS was above 100 µM each time.
